Results: US20260294864A1, “PHARMACEUTICAL COMPOSITION FOR THE TREATMENT AND PREVENTION OF HPV” (NP1 SRL, priority 2022, published 2026)

Legend:
Format in all cases: cell-based, human
[1] = tested on: Siha cells; assay: Antiproliferative effect on Siha cells, live cell analysis; conditions: Siha 1000 cells/well
Protocol: FIG. 2: live cell analysis of RNPs antiproliferative effect. Siha cells were seeded at 1000 cells/well in a 96 well plate and allowed to adhere overnight. The plate was then washed twice with PBS and replenished with 100 microliter/well fresh medium plus 50 μM of each compound. Images were taken every 12 hours; Growth curves were drawn plotting the percentage of confluence versus time. […] In fact, their growth curves outline a single spindle completely overlapping and masking the one of control untreated cells. Conversely, a distinct anti-proliferative effect is evident in panel B- where the growth curves of RNP 9 Kaempferol (solid squares), RNP 12 Luteolin (solid diamonds), RNP 16 Apigenin (solid circles) and control untreated cells (solid stars) are depicted. […] Each point represents the mean of six independent replicas. Bar width represents the Standard Deviation (SD). Consistent results were also obtained by HeLa and ME-180 cells
(§1) For antiproliferative effect cells were seeded in 96-well microplates at 1000 cells/per well (i.e.: 30 cell/mm^2), a density allowing exponential growth rate for the subsequent 8-day incubation. After overnight adhesion cell monolayers were washed and replenished with fresh media with different testing molecules, plain medium served as cell growth control.
(§2) Cell growth was then monitored by automated INCUCTE S3 imaging Systems. Images were acquired at 12-hours intervals. The analysis parameters were as follows: segmentation adjustment=0.9; hole fill <7,000 μm^2; adjusted pixel=0.
Data for growth curves, anti-clonal and Antiproliferative assays were obtained from at least three independent experiments. Each data point of quantitative anti-proliferative or anti-clonal experiments represents the mean (±SD) of eight independent replicates. Data were analyzed and plotted using Prism 6.0 software (GraphPad Software, San Diego, CA).

[2] = tested on: HPV transformed cells; assay: Anti-clonal effect on HPV transformed cells (cell line not stated); conditions: for IC50: Homo sapiens, minimal concentration reducing 50% of CFU of treated versus control, read-out: CID50 (50% clonal inhibitory dose), isolated polyphenols; for IC50 / IRR (inhibitory relative rate) / anticlonogenic / anti-clonal effect: isolated compound; for IRR (inhibitory relative rate): reverse ratio of CID50 to the reference CID50 of Quercetin (=1); for anticlonogenic / anti-clonal effect / clonal inhibition in combination: summary statement
Protocol: The inhibitory relative rate (IRR) (fourth column) provides an efficacy ranking of molecules.
The anti-clonogenic activity was evaluated both by the current standard qualitative plating efficiency assay and by quantitative live cell imaging analysis (INCUCYTE S3 Live Cell Analysis Imaging System—Sartorius Welwyn Garden City, Hertfordshire, UK). For qualitative plating efficiency assay cells were seeded at ‘clonal’ density (i.e., 0.5 cell/mm^2) either in medium containing the testing molecules or with plain medium and incubated without any further manipulation. After 9-14 days, according to the cell line specific proliferative index, the cultures were decanted and stained with 0.2% CV/methanol for 5 min at room temperature. All conditions were tested in triplicates in a 6-well culture plate. The anti-clonogenic activity of the treatments was evaluated using the colony forming units (CFU) of treated versus control cultures. The minimal concentration which could reduce 50% of the CFU of treated versus control culture was defined as colony-forming Inhibitory concentration (CID50). For quantitative evaluation cells were seeded in 96-well microplates at the above density and condition and allowed to grow the subsequent 8-day incubation in the INCUCYTE S3 Imaging System. Images were acquired at 12-hours intervals and colony formation and percentage of growth area covered (confluency) were then monitored through automated image analysis. The analysis parameters were as follows: segmentation adjustment=0.4; hole fill <5,000 μm^2; adjusted pixel=−2.

[3] = tested on: Siha cells; assay: Anti-clonogenic activity on SiHa cells (plating efficiency assay / live cell imaging); conditions: for end-point anti-clonal effect versus control untreated cells: 25.0 μM, FIG. 6-8
Protocol: In this experiment Kaempferol and Apigenin were administered to Siha cells at decremental concentrations, either in combination or alone, as shown in the topographical map (in panel C). […] Histograms in Panel B depict the number of colonies per well as evaluated by visual inspection and count.
The Histograms in Panel B depict the number of colonies per well as evaluated by visual inspection and count. • In Panel C a topographical map of plate treatments. Each condition was assayed in duplicate.
Kaempferol, Galangin, Luteolin and their combination were administered to SiHa cells at the concentrations of 25 μM each and of 12,5/12,5/6,25 μM for their combination. Treatments were allowed to stay on cells either for 2 or 4/8/16/24 hours. After that, treatments were washed out, cells washed two times with PBS, replenished with fresh medium and the anti-clonal effect was then monitored by live cell image analysis.
(§3) A total of 6 cell lines, outlined in Table 3, were used for this study. The cell lines were obtained from Research Centres of cell biology in Italy, United Kingdom and Germany. This research raised no ethical concern being based on entirely in vitro experiments using no patients' derived information or material. In compliance with National and International ethical rules, no informed consent is needed.
(§4) HeLa cells are the oldest continuous cell lines and were originally derived from a HPV18 positive metastatic cervical carcinoma (Scherer W F et al 1953). Siha cells are an epithelioid like cell line derived from a HPV16-positive invasive cervical squamous carcinoma (Friedel F et al 1970). Ca-Ski cells are a line harboring multiple copy of transcriptionally active HPV16 genomes (Baker C C et al 1984). Both Hela and Siha were a kind gift of prof MS Campo, The Beatson Institute for Cancer Research, Glasgow, Scotland. These two cell lines because of their versatility and ease of use were used for most of experiments reported. Ca-Ski cells were obtained through the courtesy of prof. Matthias Durst, at the Deutsch Krebsforschungzentrum—Heidelberg, FRG. These cells used together with Siha provide a model for the genetic instability and variability of cervical cancers. HK-168 is an immortalized, non-tumorigenic, continuous cell line derived from human skin keratinocytes in vitro transformed with whole HPV16 genome (De Marco F et al 2007). This cell line is reputed to recapitulate le biological features of transformed dysplastic cells and was used in preliminary experiments to set the experimental dosages and conditions. The ME-180 cells are a cell line harboring a few, transcriptionally active, copies of HPV68 and provide an in vitro model for dysplastic/neoplastic lesions induced by HPV with Intermediate oncogenic Risk (Yee C C et al 1985). The HaCaT cells, derived from a solar skin lesion by Petra Boukamp et al (1988) are here used as an in vitro equivalent of Ultra-Violet induced pre-neoplastic epithelial cells to rule out possible direct toxic effects of polyphenols. Both HaCaT and ME-180, were kindly donated by Prof. Matthias Durst. Hela, Siha, Ca-Ski, ME-180 and HaCaT were all grown in high glucose DMEM supplemented with 10% fetal calf serum (FCS). The HK-168 cells, which retained the ability to terminally differentiate under high Ca^2+ and FCS concentrations, were grown in K-SFM, a chemically defined medium supplemented with human EGF and bovine pituitary extract (ThermoFisher Scientific, Life Technologies, Monza—MI). Each cell line was sub-cultured twice a week at the appropriate split ratio according to the specific proliferative index. In no case antibiotics or antimycotics were added to the culture media. For the present study, all cell lines were retrieved from an in-house cell archive facility.

[4] = tested on: HeLa cells; assay: Anti-clonogenic activity on HeLa cells (plating efficiency assay / live cell imaging); conditions: for Anti-clonal effect / end point clonal assay, clonal inhibition alone: 50 μM; for Anti-clonal effect: isolated, FIG. 1; for clonal inhibition in combination with Apigenin: 50 μM combined with Apigenin 25 μM; for clonal inhibition in combination with Apigenin / end point clonal assay, clonal inhibition alone: FIG. 9-11; for clonal inhibition in combination with Chrysin: 50 μM combined with Chrysin 25 μM; for clonal inhibition in combination with Chrysin / synergy with Galangine, Apigenin and Chrysin: FIG. 10-11; for end point clonal assay, clonal inhibition alone: administered alone
Protocol: Panel C and D: diagrammatic topographical maps of treatments and growth conditions on plates A and B respectively.
Panel A. Hela cells were challenged with serial twofold dilutions of 50 μM Luteolin (in columns 1-6) and 100 μM Galangin (columns 7-10). Hela control untreated cells in columns 11-12.
as §3, §4
The anti-clonogenic activity was evaluated both by the current standard qualitative plating efficiency assay and by quantitative live cell imaging analysis ([…] S3 Live Cell Analysis Imaging System—Sartorius Welwyn Garden City, Hertfordshire, UK).

[5] = tested on: HPV transformed cells; assay: Antiproliferative effect on HPV transformed cells (cell line not stated); conditions: summary statement, isolated compound
Protocol: as §1, §2

[6] = combined with Galangin, Chrysin or Apigenin
[7] = 50 μM combined with Galangin 25 μM, HeLa, FIG. 11

| IC50 [2] [µM] | Compound | anticlonogenic / anti-clonal effect [2] | Anti-clonal effect ([4]; HeLa) | clonal inhibition in combination with Apigenin ([4]; HeLa) | end point clonal assay, clonal inhibition alone ([4]; HeLa) | further results |
| --- | --- | --- | --- | --- | --- | --- |
| 25 | O=c1cc(-c2ccc(O)cc2)oc2cc(O)cc(O)c12 [Apigenin] | fair anti-clonal effect, although milder | almost complete suppression of clonal activity | – | – | antiproliferative effect ([1]; 50 μM, FIG. 2): distinct, although milder effect; inhibition at 50 µM ([1]; Homo sapiens, FIG. 2, read-out: suppression of proliferation): ~20%; IRR (inhibitory relative rate) [2]: 2; clonal efficiency versus control untreated cells ([3]; 12.5 μM, alone, Siha, FIG. 4): no difference to control untreated cells; end-point anti-clonal effect versus control untreated cells ([3]; alone, SiHa): no difference to control untreated cells |
| – | O=C(O)c1ccccc1 [Benzoic acid] | devoid of. any direct anticlonogenic activity | devoid of any significant anticlonogenic effect | almost complete clonal inhibition | neither of them induced any effect | clonal inhibition in combination [2, 6]: a certain grade of clonal inhibition; clonal inhibition in combination with Chrysin ([4]; HeLa): almost complete clonal inhibition; clonal inhibition in combination with Galangin [4, 7]: almost complete clonal inhibition; synergy with Galangine, Apigenin and Chrysin ([4]; in association, HeLa): synergize |
| – | O=C(/C=C/c1ccc(O)c(O)c1)O[C@@H]1C[C@](O)(C(=O)O)C[C@@H](O)[C@H]1O [Chlorogenic acid] | devoid of. any direct anticlonogenic activity | devoid of any significant anticlonogenic effect | almost complete clonal inhibition | neither of them induced any effect | clonal inhibition in combination [2, 6]: a certain grade of clonal inhibition; clonal inhibition in combination with Chrysin ([4]; HeLa): almost complete clonal inhibition; clonal inhibition in combination with Galangin [4, 7]: almost complete clonal inhibition; synergy with Galangine, Apigenin and Chrysin ([4]; in association, HeLa): synergize |
| 25 | O=c1cc(-c2ccccc2)oc2cc(O)cc(O)c12 [Chrysin] | fair anti-clonal effect, although milder | almost complete suppression of clonal activity | – | – | IRR (inhibitory relative rate) [2]: 2 |
| 25 | O=c1c(O)c(-c2ccccc2)oc2cc(O)cc(O)c12 [Galangin] | sharp anticlonogenic and antiproliferative effect | almost complete suppression of clonal activity | – | – | IRR (inhibitory relative rate) [2]: 2; antiproliferative effect [5]: sharp anticlonogenic and antiproliferative effect; end-point anti-clonal effect versus control untreated cells ([3]; alone, SiHa): no difference to control untreated cells; inhibition at 25 µM ([3]; Homo sapiens, 25 μM, single compound, 24 hours treatment then wash-out, SiHa, FIG. 12, read-out: clonal inhibition): ~50%; anti-clonal effect at concentrations above CID50 ([4]; higher concentrations than CID50, HeLa, FIG. 3): completely suppressive |
| – | O=C1c2c(O)cc(O)cc2O[C@H](c2ccccc2)[C@H]1O [Pinobanksin] | – | No effect | – | – | – |
| – | O=C1C[C@@H](c2ccccc2)Oc2cc(O)cc(O)c21 [Pinocembrin] | – | devoid of any significant anticlonogenic effect | – | – | – |
| – | O=C(O)c1ccc(O)c(O)c1 [Protocatechuic acid] | devoid of. any direct anticlonogenic activity | devoid of any significant anticlonogenic effect | almost complete clonal inhibition | neither of them induced any effect | clonal inhibition in combination [2, 6]: a certain grade of clonal inhibition; clonal inhibition in combination with Chrysin ([4]; HeLa): almost complete clonal inhibition; clonal inhibition in combination with Galangin [4, 7]: almost complete clonal inhibition; synergy with Galangine, Apigenin and Chrysin ([4]; in association, HeLa): synergize |
| – | C[C@@H]1O[C@@H](OC[C@H]2O[C@@H](Oc3c(-c4ccc(O)c(O)c4)oc4cc(O)cc(O)c4c3=O)[C@H](O)[C@@H](O)[C@@H]2O)[C@H](O)[C@H](O)[C@H]1O [Rutin] | – | No effect | – | – | – |
| – | COc1cc(C(=O)O)ccc1O [Vanillic acid] | devoid of any direct activity | devoid of any significant anticlonogenic effect | almost complete clonal inhibition | neither of them induced any effect | clonal inhibition in combination ([2]; combined with Galangin or Quercetin): a certain grade of clonal inhibition; anticlonogenic / anti-clonal effect ([2]; listed as Vanillic): devoid of. any direct anticlonogenic activity; clonal inhibition in combination with Galangin ([4]; 50 μM combined with Galangin 12.5 μM, HeLa, FIG. 9-10): almost complete clonal inhibition; synergistic effect with Galangine and Apigenin ([4]; in association, HeLa, FIG. 9): synergistic effect |

| Compound | IC50 [2] [µM] | anticlonogenic / anti-clonal effect [2] | Anti-clonal effect ([4]; HeLa) | clonal inhibition in combination with Apigenin ([4]; HeLa) | end point clonal assay, clonal inhibition alone ([4]; HeLa) | further results |
| --- | --- | --- | --- | --- | --- | --- |
| O=c1c(O)c(-c2ccc(O)c(O)c2)oc2cc(O)cc(O)c12 [Quercetin] | 50 | fair anti-clonal effect, although milder | almost complete suppression of clonal activity | – | – | – |
